Reference: patent EP4285905A1, “CABERGOLINE OR A PHARMACEUTICALLY ACCEPTABLE SALT OR SOLVATE THEREOF, FOR USE IN PREVENTION OR DELAY OF POST-PREGNANCY BREAST CANCER IN A FEMALE MAMMAL” (Consejo Superior de Investigaciones Cientificas, priority 2022, dated 2023)

Legend:
[1] = test system: Brca1/P53-deficient mice; assay: Quantification of adipose and ductal tissue areas in the breast (hematoxylin-eosin, ImageJ); type: in vivo; details: for adipose tissue area: vs untreated lactating multiparous mice, P < 0.001
From the text: Subsequently, the same groups of animals indicated were generated and samples were collected from the mammary glands at 1, 3, 7, 30 and 60 days post-gestation (in non-lactating multiparous) or post-weaning (in lactating multiparous, with and without treatment with cabergoline) (N = 5 mice per group at each time studied).
The left inguinal breast of each mouse was embedded in paraffin for further study. Once removed from the animals, the breasts were fixed in 4% paraformaldehyde (Scharlau FO) for 24 hours and, subsequently, they were kept in 70% ethanol at a temperature of 4 °C, until they were processed in the Comparative Molecular Pathology Service of the Salamanca Cancer Research Center. Tissues were dehydrated by three 1-hour incubations in increasing concentrations of ethanol (60%, 80%, and 100%). Three other 1-hour incubations were carried out in xylol, to replace the dehydrating agent with a substance miscible in paraffin. Finally, three other incubations of 1 hour and 20 minutes were carried out with liquid paraffin, after which blocks were made with a mould suitable for the size of the tissue in a paraffin embedding station. When the paraffin blocks were completely cold, 2-µm-thick sections were made using a rotation microtome (Leica RM2255).
Hematoxylin and eosin staining was performed in the Comparative Molecular Pathology Service of the Salamanca Cancer Research Center using a battery of manual staining following the processes: deparaffinization in xylol, rehydration with ethanol at different graduations, hematoxylin and eosin staining, dehydration with ethanol and clearance. Once the process was finished, the samples were mounted by adding a drop of non-aqueous DPX fixative and the coverslip was placed.
Adipose tissue area and ductal area were evaluated using ImageJ free software. The ductal area was defined as the surface occupied by the epithelium of the ducts together with the surrounding fibrous tissue stroma, excluding the area of the tubular lumen. To evaluate the ductal and adipocyte area, 10 photos were taken at 10X magnification of the surface of the mammary gland of each of the study animals, five photos in the distal area and five in the proximal area of the breast. The photos were taken randomly in each of these areas of the samples stained with hematoxylin-eosin, with a Leica DM1000 light microscope. […] In the proximal area, more adipose tissue and less ductal tissue were observed than in the distal area, and vice versa. For this reason, only the values of the distal zone were determined to carry out the analyses.
The quantification was expressed as a percentage of the total area. […]

[2] = test system: recombinant (RFP+) cells; assay: Flow cytometry of RFP+ recombinant mammary epithelial subpopulations; type: in vivo, mice; details: 60 days after weaning
From the text: The mouse model used for the cytometry studies was obtained by crossing the conditional model K14Cre; Brca1^F/F; P53^F/F with a model that expresses red fluorescent protein (RFP) under the promoter of the ROSA26 locus. This promoter has a stop codon flanked by LoxP sites that recognize Cre-recombinase. In this way, cells that lose Brca1 (gene) and P53 (gene) due to the action of Cre-recombinase also express RFP and emit fluorescence. The mouse was obtained from the European repository (European mutant mouse archive - EMMA) and was generated by the group of Hans Jörg Fehling from the Institute of Immunology of the Clinical University of Ulm, Germany. For these studies, between 6 and 11 mice from the different study groups were used.
Once the mouse mammary glands were removed, they were incubated in a 50 mL tube containing 9 mL of medium (Gibco DMEM/F-12, #11554546, Fisher Scientific), 500 µL of collagenase and 500 µL of hyaluronidase, at a temperature of 37 °C for 16 hours. After incubation, the aggregated tissue debris was disrupted by pipetting for approximately 30 seconds and the sample was centrifuged for 5 minutes at 350 g at room temperature. Centrifugation was performed, in all examples, using the Eppendorf 5804R refrigerated centrifuge including an A-44 rotor with a radius of 15 cm (width (metric) exterior 634 mm; depth (metric) 550 mm, height (metric) exterior 342 mm). The supernatant was discarded and the pellet formed was resuspended in 2 mL of ACK buffer (Gibco ACK Lysing Buffer, #A10492-01, Fisher Scientific) to lyse the erythrocytes present in the sample. The disaggregated sample was incubated in ACK buffer for 5 minutes at room temperature and subsequently centrifuged at 350 g for 5 minutes. After centrifugation, the supernatant was discarded and 1 mL of trypsin was added at 37 °C. The pellet was resuspended by pipetting for 2 minutes. Next, 10 mL of saline (Gibco HBSS, #14025-092, Fisher Scientific) supplemented with 10 mM HEPES buffer and fetal bovine serum was added and centrifuged for 5 minutes at 350 g at room temperature. Then, the supernatant was discarded and 1 mL of the buffered saline solution (hereinafter HF) and 100 µL of warm DNase were added, carefully pipetted for 1 minute and 5 mL of cold HF was added, to stop action of the DNase. The mixture was filtered through a 40 µm filter and washed with 5 mL of cold HF. It was centrifuged for 5 minutes at 350 g, at a temperature of 4 °C and the supernatant was removed after centrifugation. Subsequently, the mixture was resuspended in 5 mL of cold HF and the mixture was distributed in cytometry tubes with a 35 µm filter. 4/5 of the sample was allocated for immunolabeling and the remaining 1/5 was allocated as an unlabelled control. It was centrifuged for 5 minutes at 1200 rpm (= 20 s^-1) at a temperature of 4 °C and the supernatant was decanted after centrifugation. Subsequently, 52 µL of blocking solution, consisting of 50 µL of HF and 2 µL of anti-CD16/CD32 antibody, were added, gently vortexed and incubated for 10 minutes at 4 °C. Next, 50 µL of immuno-labelling solution made up of the following antibodies: CD45 FITC, CD140 FITC, CD31 FITC, Ter119 FITC, CD49fAPC, CD29 APC-Cy7, CD61 BV421, Sca1 PerCP-Cy5, EpCAM PE- Cy7, e506, was added to the tube intended for staining and 50 µL of HF was added to the control tube. After incubating for 30 minutes and performing a wash, the samples were acquired with the LSR Fortessa X-20 Cell Analyzer cytometer (BD Biosciences). […]

[3] = KO-RFP+ group, vs nulliparous and lactating multiparous mice
[4] = treated vs untreated multiparous mice

## C=CCN1C[C@H](C(=O)N(CCCN(C)C)C(=O)NCC)C[C@@H]2c3cccc4[nH]cc(c34)C[C@H]21 [cabergoline, 1-[(6-allylergolin-8ß-yl)-carbonyl]-1-[3-(dimethylamino)propyl]-3-ethylurea]
[1]; 3 days after weaning
  adipose tissue area: statistically significant increase in adipose tissue
[1]; 7 days after weaning
  adipose tissue area: statistically significant increase in adipose tissue
[1]; 30 days post-lactational involution
  ductal area: drastic decrease in ductal area
[1]; 60 days post-lactational involution
  ductal area (epithelial component): great reduction of the epithelial component
[2]; [3]
  ductal precursor cells (CD61+) with respect to total recombinant ductal cells: relative increase in precursors
  mature ductal cells (CD61-) with respect to total recombinant ductal cells: relative decrease in mature ductal cells
[2]; [4]
  ductal cell subpopulations with respect to total recombinant epithelial cells: no statistically significant differences
  proportion of luminal and basal cells within recombinant cells (RFP+): No significant differences
  proportion of luminal ductal cells (Sca1+) within recombinant luminal cells: no significant differences
